Results taken from patent publication US20080095711A1, “Modulators of Pulmonary Hypertension” (priority 2006, published 2008).
“Also recorded” adds a separate entry of the source.

Experiments:
[1] = test system: isolated perfused rabbit lungs; assay: Hypoxia-induced pulmonary vasoconstriction in isolated perfused rabbit lungs (with L-NAME); details: compound at 10 μM in perfusate, L-NAME 100 μM
Protocol: Adult New Zealand white rabbits were prepared as described in Example 2. After exsanguination was completed, a midsternal thoracotomy was performed, and the heart and lungs were removed en bloc. Fluid-filled catheters were placed into the PA and the left atrium for lung perfusion and pressure measurements. The isolated lungs were ventilated at 10 ml/kg with 26-30 breaths/min of 15% O2-6% CO2-79% N2 to achieve a perfusate pH of 7.33±0.01, PCO2 of 38.1±2.8 mmHg, and PO2 of 107.3±5.9 mmHg. The lungs were perfused in a humidified chamber (34-37° C.) in a recirculating manner with 150 ml of PSS containing (in mM) 118.3 NaCl, 4.7 KCl, 2.5 CaCl2, 1.2 MgSO4, 1.2 KH2PO4, 25.0 NaHCO3, 0.026 Na-EDTA, and 11.1 glucose (pH 7.4) to which hetastarch was added for maintenance of oncotic pressure. […] Pulmonary arterial (Ppa, inflow), pulmonary venous (Pla, outflow), and airway pressures were recorded continuously. Microvascular pressure (Pmv) was measured by the double occlusion method (Dawson C. A., et al., Journal of Applied Physiology 64: 274-284, 1988; Wurtz M. M., et al., J Appl Physiol 73: 2135-2141, 1992). […] Total PVR was calculated as (Ppa Pla)/perfusate flow rate. Arterial PVR was calculated as (Ppa Pmv)/perfusate flow rate, and venous PVR was calculated as (Pmv Pla)/perfusate flow rate (Stephenson A. H., et al., Am J Physiol 275: H100-H109, 1998).

[2] = test system: rabbit intralobar pulmonary arteries; assay: Inhibition of agonist-induced vasoconstriction in rabbit intralobar pulmonary artery rings (ring tension); details: compound at 10 μM; for inhibition of 5,6-EET-induced vasoconstriction (concentration-response curve shifted to the right): 5,6-EET 1×10^−8-1×10^−5 M, rabbit PA rings
Protocol: To obtain the pulmonary arteries used in the study, adult New Zealand white rabbits (2.4-3.0 kg) were anesthetized with pentobarbital sodium (15 mg/kg iv) for 10 minutes after intramuscular administration of ketamine (8 mg/kg) and xylazine (2 mg/kg). A tracheostomy was performed and a tracheal cannula was inserted. The animals were ventilated via a fixed volume ventilator (Harvard) with room air (tidal volume: 8-10 ml/kg at 15 cycles/min). A catheter was inserted into a carotid artery for administration of heparin (1,000 units, iv) 10 minutes before exsanguination of the animal. After exsanguination, the lungs were removed for isolation of the pulmonary vessels. Intralobar, second order pulmonary arteries (PA) were obtained as described previously (Stephenson A. H., et al., American Journal of Physiology 284: H2153-H2161, 2003). Briefly, intralobar PA (1-2 mm OD) were dissected free of extravascular tissue, cut into rings 3-4 mm in length and suspended in water-jacketed tissue chambers containing 10 ml of a physiological salt solution (PSS) composed of (in mM): NaCl (118.3), KCl (4.7), CaCl2 (2.5), MgS04 (1.2), KH2P04 (1.2), NaHC03 (25) Na-EDTA (0.026), and glucose (11.1). The PSS was gassed with 95% O2-5% CO2 (pH: 7.4) and maintained at 37° C. Each ring was mounted between two stainless steel support wires. Ring tension was measured from one of the support wires attached to an isometric force transducer (FT03, Grass) and recorded continuously on a polygraph (Grass). Each ring was placed under a basal (passive) tension (0.75 to 1.5 g) determined to result in a maximal contractile response to KCl (60 mM). In some studies, basal tension was increased with 25 mM KCl to achieve a submaximal increase in active tension. At basal tension, concentrations of 5,6-EET (1×10^−8-1×10^−5 M, delivered in 1 μl of absolute ethanol) were added individually or cumulatively to the rings in 10 ml PSS. Total ethanol concentration in the tissue chambers never exceeded 0.1%. In these experiments, 5,6-EET was added in the presence or absence of the selective 5,6-EET inhibitors 13-HTEC (10 μM) and 14-HTYC (10 μM). […] PA rings were also exposed to various concentrations of PGF2α, (Sigma Chemical Company, St. Louis, Mo.), 14,15-EET (Cayman Chemical, Ann Arbor, Mich.), 5-hydroxytryptamine (5-HT) (Sigma Chemical Company, St. Louis, Mo.), and norepinephrine (NE) (Sigma Chemical Company, St. Louis, Mo.).

[3] = test system: rabbit intralobar pulmonary arteries; assay: Promotion of 5,6-EET induced vasoconstriction in rabbit intralobar pulmonary artery rings; details: compound at 1 μM; rabbit PA rings
Protocol: To obtain the pulmonary arteries used in the study, adult New Zealand white rabbits (2.4-3.0 kg) were anesthetized with pentobarbital sodium (15 mg/kg iv) for 10 minutes after intramuscular administration of ketamine (8 mg/kg) and xylazine (2 mg/kg). A tracheostomy was performed and a tracheal cannula was inserted. The animals were ventilated via a fixed volume ventilator (Harvard) with room air (tidal volume: 8-10 ml/kg at 15 cycles/min). A catheter was inserted into a carotid artery for administration of heparin (1,000 units, iv) 10 minutes before exsanguination of the animal. After exsanguination, the lungs were removed for isolation of the pulmonary vessels. Intralobar, second order pulmonary arteries (PA) were obtained as described previously (Stephenson A. H., et al., American Journal of Physiology 284: H2153-H2161, 2003). […] Ring tension was measured from one of the support wires attached to an isometric force transducer (FT03, Grass) and recorded continuously on a polygraph (Grass). Each ring was placed under a basal (passive) tension (0.75 to 1.5 g) determined to result in a maximal contractile response to KCl (60 mM). […]

mice = details: Pokreisz et al. 2006; cited from earlier work

SMILES: CCCCCCCOCCCCCCC/C=C\CCCC(=O)O [Compound 13-HTEC, 13-heptyloxytridec-5(Z)-enoic acid]
- effect on pulmonary arterial inflow (Ppa) pressure / hypoxia-induced vasoconstriction [1]: hypoxia-induced vasoconstriction is reduced; also recorded: significantly decreased
- inhibition of 5-hydroxytryptamine (5-HT)-mediated vasoconstriction of PA [2]: is not inhibited; also recorded: does not inhibit
- inhibition of 14,15-EET-mediated vasoconstriction of PA [2]: is not inhibited; also recorded: does not inhibit
- inhibition of PGF2α-mediated vasoconstriction of PA [2]: is not inhibited; also recorded: does not inhibit
- inhibition of norepinephrine (NE)-mediated vasoconstriction of PA [2]: Minimal effects; also recorded: may have partially inhibited
- inhibition of 5,6-EET-induced vasoconstriction (concentration-response curve shifted to the right) [2]: specifically inhibit; also recorded: significantly inhibited

SMILES: CCCCCC1OC1CCCCCCC/C=C\CCCC(=O)O (stereo not shown) [14,15-EEZE, 14,15-epoxyeicosa-5(Z)-enoic acid]
- effect on vasoconstrictor activity of exogenously administered 5,6-EET (concentration-response curve shifted to the left) [3]: significantly promoted or agonized

SMILES: C#CCOc1ccccc1CCCCCC(=O)NS(C)(=O)=O [MSPPOH, N-methyl sulfonyl-6-(2-propargyloxyphenyl)hexanamide]
- effect on acute hypoxia-induced pulmonary hypertension (mice): significantly reduced
- effect on chronic hypoxia-induced pulmonary vascular remodeling (mice): significantly reduced

SMILES: CCCCCCOCCCCCCCCC#CCCCC(=O)O [Compound 14-HTYC, 14-(hexyloxy)tetradec-5-ynoic acid]
- inhibition of 5,6-EET-induced vasoconstriction (concentration-response curve shifted to the right) [2]: specifically inhibit
